Our source for the IC50 values is patent publication US20050054696A1, “Indole compounds and medicinal use thereof” (priority 2001, published 2005).

For orientation: pIC50 means −log10 of the IC50, conventionally taken in molar units.

pIC50: −log10 of the molar value.

In the experiment the target is T1, recombinant human liver glycogen phosphorylase (HLGPa) (Homo sapiens, UniProt P06737).
T1 construct: made in house; host or cells: Sf9 insect cells (unpurified cell lysate used as enzyme solution)
T1 sequence (P06737 1-847): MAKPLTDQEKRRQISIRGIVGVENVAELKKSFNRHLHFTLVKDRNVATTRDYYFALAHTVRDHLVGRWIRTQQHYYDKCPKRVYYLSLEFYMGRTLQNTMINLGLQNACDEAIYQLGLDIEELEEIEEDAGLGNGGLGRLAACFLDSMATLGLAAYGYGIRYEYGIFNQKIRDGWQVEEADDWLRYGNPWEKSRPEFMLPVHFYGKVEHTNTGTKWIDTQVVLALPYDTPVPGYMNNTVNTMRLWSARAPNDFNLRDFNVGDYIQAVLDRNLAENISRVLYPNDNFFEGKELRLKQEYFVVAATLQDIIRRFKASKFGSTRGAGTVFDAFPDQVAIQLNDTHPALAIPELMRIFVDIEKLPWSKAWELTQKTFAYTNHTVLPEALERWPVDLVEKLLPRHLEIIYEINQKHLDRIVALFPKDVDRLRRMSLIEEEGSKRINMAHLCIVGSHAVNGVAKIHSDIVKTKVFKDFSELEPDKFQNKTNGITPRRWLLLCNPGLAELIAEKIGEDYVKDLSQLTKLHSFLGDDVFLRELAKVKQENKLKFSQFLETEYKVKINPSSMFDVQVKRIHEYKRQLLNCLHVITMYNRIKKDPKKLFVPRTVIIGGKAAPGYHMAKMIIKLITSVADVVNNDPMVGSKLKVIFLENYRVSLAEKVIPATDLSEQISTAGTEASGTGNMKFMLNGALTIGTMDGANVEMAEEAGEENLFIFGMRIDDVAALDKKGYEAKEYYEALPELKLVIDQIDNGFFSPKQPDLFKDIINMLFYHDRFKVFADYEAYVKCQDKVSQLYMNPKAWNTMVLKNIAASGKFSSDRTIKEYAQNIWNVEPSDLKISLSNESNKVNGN
Kind of experiment: Measurement of liver glycogen phosphorylase activity (enzyme inhibitory activity against HLGPa). The settings on record: Sf9 cell lysate expressing recombinant enzyme; reverse reaction (glycogen synthesis from G1-P), phosphate by malachite green, 60 min room temperature. Format: biochemical. How it is done: Measurement Method of Liver Glycogen Phosphorylase Activity
The measurement of the glycogen phosphorylase activity was performed by measuring the concentration of phosphoric acic produced by a reverse reaction, that is, a reaction wherein the glycogen phosphorylase synthesizes glycogen from G1-P. A cell lysate of Sf9 cells that forcibly expressed recombinant human liver glycogen phosphorylase was diluted to a protein amount of 80 μg/mL with 1 mM imidazole-hydrochloric acid buffer (pH 7.0, containing 0.2 mM PMSF, 250 mM NaCl, 0.025% BSA) and the dilute cell lysate was used as an enzyme solution of human liver glycogen phosphorylase. As a substrate solution, 25 mM Tris-HCl buffer (pH 7.2, containing 250 mM KCl, 6.25 mM MgCl2, 6.25 mM EGTA, 1.25 mM glucose-1-phosphate, 2.5 mg/ml glycogen, 7.5 mM glucose) was used. The test drug was dissolved in 0.5% dimethyl sulfoxide (DMSO). To a mixture of the test drug (10 μl) and the substrate solution (20 μl) was added an enzyme solution (20 μl) to start the enzyme reaction. As a control, 0.5% DMSO was added instead of the test drug. One free of addition of enzyme was used as a blank. The mixture was reacted at room temperature for 60 min, and a malachite green solution (50 μl) was added. The mixture was further reacted at room temperature for 20 min and absorbance at 650 nm was measured. An enzyme solution was added to the blank simultaneously with the malachite green solution and the measurement was done in the same manner. The percent inhibition (%) of the test drug was calculated from ((value of control−value of the test drug)/(value of control−value of blank))×100 (%).
As to `N=C(NNC(=O)c1cc2cc(Cl)ccc2[nH]1)c1c(F)cccc1Cl` [Example 1-138, 5-chloro-1H-indole-2-carboxylic acid 2-((2-chloro-6-fluorophenyl)-imino-methyl)hydrazide], the pIC50 is 6.34. On to `CC(=O)Oc1ccc2[nH]c(=O)n(NC(=O)c3cc4cc(C)ccc4[nH]3)c(=O)c2c1` [Example 2-29, acetic acid 3-((5-methyl-1H-indole-2-carbonyl)amino)-1,2,3,4-tetrahydro-2,4-dioxoquinazolin-6-yl ester], for which the pIC50 was 6.57. To `O=C(NNC(=O)c1cccs1)c1cc2cc(F)ccc2[nH]1` [Example 1-11, thiophene-2-carboxylic acid 2-(5-fluoro-1H-indole-2-carbonyl)hydrazide] belongs 7.14; to `O=C(NNC(=O)c1c(Cl)cccc1Cl)c1cc2cc(Cl)ccc2[nH]1` [Example 1-25, 2,6-dichlorobenzoic acid 2-(5-chloro-1H-indole-2-carbonyl)hydrazide], 6.85.

For `O=C(NNC(=O)c1cc2cc(Cl)ccc2[nH]1)c1cccc(C(F)(F)F)c1` [Example 1-30, 3-trifluoromethylbenzoic acid 2-(5-chloro-1H-indole-2-carbonyl)hydrazide], the pIC50 is 6.62. To `Cc1nc(C(=O)NNC(=O)c2cc3cc(Cl)ccc3[nH]2)cs1` [Example 1-72, 2-methylthiazole-4-carboxylic acid 2-(5-chloro-1H-indole-2-carbonyl)hydrazide] belongs less than 7.00.

`COc1ccccc1C(=N)NNC(=O)c1cc2cc(Cl)ccc2[nH]1` [Example 6-24, 5-chloro-1H-indole-2-carboxylic acid 2-(imino-(2-methoxyphenyl)-methyl)hydrazide methanesulfonate]: the negative logarithm of the IC50 (pIC50) is 6.80.

For the molecule `O=C(NNC(=O)c1ccc(Cl)cc1Cl)c1cc2cc(Cl)ccc2[nH]1` [Example 1-24, 2,4-dichlorobenzoic acid 2-(5-chloro-1H-indole-2-carbonyl)hydrazide], the pIC50 was 6.77. In the case of `Cc1ccc(C(=O)NNC(=O)c2cc3cc(Cl)ccc3[nH]2)cc1` [Example 1-14, 4-methylbenzoic acid 2-(5-chloro-1H-indole-2-carbonyl)hydrazide], the pIC50 was 6.89. As for `O=C(NNC(=O)c1ccco1)c1cc2cc(Cl)ccc2[nH]1` [Example 1-78, furan-2-carboxylic acid 2-(5-chloro-1H-indole-2-carbonyl)hydrazide], the figure is 7.74; as for `CC(C)c1ccc2[nH]c(C(=O)Nn3c(=O)[nH]c4ccccc4c3=O)cc2c1` [Example 2-9, 5-isopropyl-1H-indole-2-carboxylic acid (1,2,3,4-tetrahydro-2,4-dioxoquinazolin-3-yl)amide], less than 7.00. As for `Cc1ccc(N2CCC(=O)N(NC(=O)c3cc4cc(Cl)ccc4[nH]3)C2=O)cc1` [Example 3-13, 5-chloro-1H-indole-2-carboxylic acid (2,4-dioxo-1-(p-tolyl)perhydropyrimidin-3-yl)amide], the figure is 6.36; as for `CC(C)(COC(=O)Nc1ccccc1C(=O)NNC(=O)c1cc2cc(Cl)ccc2[nH]1)C(=O)O` [Example 1-76, 3-((2-(2-(5-chloro-1H-indole-2-carbonyl)hydrazinocarbonyl)phenyl)carbamoyloxy)-2,2-dimethylpropionic acid], 7.43. As to `Cc1ccc2[nH]c(C(=O)NNC(=O)c3ccccc3N)cc2c1` [Example 6-28, 2-aminobenzoic acid 2-(5-methyl-1H-indole-2-carbonyl)hydrazide p-toluenesulfonate], the pIC50 is 6.60. To `O=C(NN1C(=O)CCN(c2cccc(Cl)c2)C1=O)c1cc2cc(Cl)ccc2[nH]1` [Example 3-11, 5-chloro-1H-indole-2-carboxylic acid (1-(3-chlorophenyl)-2,4-dioxoperhydropyrimidin-3-yl)amide] belongs 6.28; to `CCc1ccc2[nH]c(C(=O)Nn3c(=O)[nH]c4ccccc4c3=O)cc2c1` [Example 2-25, 5-ethyl-1H-indole-2-carboxylic acid (1,2,3,4-tetrahydro-2,4-dioxoquinazolin-3-yl)amide], less than 7.00. As for `O=C(Nn1c(=O)[nH]c2ccccc2c1=O)c1cc2ccc(Cl)cc2[nH]1` [Example 2-12, 6-chloro-1H-indole-2-carboxylic acid (1,2,3,4-tetrahydro-2,4-dioxoquinazolin-3-yl)amide], the figure is 6.36; as for `O=C(NN1C(=O)CN(c2ccccc2)C1=S)c1cc2cc(Cl)ccc2[nH]1` [Example 4-3, N-(4-oxo-1-phenyl-2-thioxoimidazolidin-3-yl)-5-chloro-1H-indole-2-carboxamide], less than 7.00.

For `Cc1ccc(C(=O)NNC(=O)c2cc3cc(Cl)ccc3[nH]2)c(N)c1` [Example 1-95, 2-amino-4-methylbenzoic acid 2-(5-chloro-1H-indole-2-carbonyl)hydrazide], the pIC50 is 6.55. As for `O=C(NNC(=O)c1cc2cc(OCc3ccccc3)ccc2[nH]1)c1ccccc1` [Example 1-123, benzoic acid 2-(5-benzyloxy-1H-indole-2-carbonyl)hydrazide], the figure is less than 7.00. Take `CC(C)c1ccc2[nH]c(C(=O)NNC(=O)c3ccccc3N)cc2c1` [Example 1-36, 2-aminobenzoic acid 2-(5-isopropyl-1H-indole-2-carbonyl)hydrazide]: the pIC50 was less than 7.00. To `O=C(NNC(=O)c1cc2cc(Cl)ccc2[nH]1)c1cnccn1` [Example 1-82, pyrazine-2-carboxylic acid 2-(5-chloro-1H-indole-2-carbonyl)hydrazide] belongs 6.44; to `CN(C)C(=O)COc1cccc(C(=O)NNC(=O)c2cc3cc(Cl)ccc3[nH]2)c1` [Example 1-71, 2-(3-(2-(5-chloro-1H-indole-2-carbonyl)hydrazinocarbonyl)phenoxy)-N,N-dimethylacetamide], 7.21; to `O=C(NNC(=O)c1ccccc1C(F)(F)F)c1cc2cc(Cl)ccc2[nH]1` [Example 1-32, 2-trifluoromethylbenzoic acid 2-(5-chloro-1H-indole-2-carbonyl)hydrazide], 6.46.

As for `Cc1ccc(C(=N)NNC(=O)c2cc3cc(Cl)ccc3[nH]2)n1C` [Example 6-27, 5-chloro-1H-indole-2-carboxylic acid 2-((1,2-dimethyl-1H-pyrrol-5-yl)-imino-methyl)hydrazide methanesulfonate], the pIC50 is 6.77. In the case of `CC(=O)Nc1ccccc1C(=O)NNC(=O)c1cc2cc(Cl)ccc2[nH]1` [Example 1-47, N-(2-(2-(5-chloro-1H-indole-2-carbonyl)hydrazinocarbonyl)phenyl)acetamide], the pIC50 is 6.18. As for `O=C(NNC(=O)c1cc2cc(Cl)ccc2[nH]1)c1ccc[nH]1` [Example 1-80, 1H-pyrrole-2-carboxylic acid 2-(5-chloro-1H-indole-2-carbonyl)hydrazide], the figure is 6.40. As for `CC(=O)Nc1cccc(C(=O)NNC(=O)c2cc3cc(Cl)ccc3[nH]2)c1` [Example 1-46, N-(3-(2-(5-chloro-1H-indole-2-carbonyl)hydrazinocarbonyl)phenyl)acetamide], the figure is 6.54.

In the case of `Cc1cccc(C(=O)NNC(=O)c2cc3cc(Cl)ccc3[nH]2)c1` [Example 1-18, 3-methylbenzoic acid 2-(5-chloro-1H-indole-2-carbonyl)hydrazide], the pIC50 was 7.00.

Consider `COC(=O)Nc1ccccc1C(=O)NNC(=O)c1cc2cc(C)ccc2[nH]1` [Example 1-64, methyl (2-(2-(5-methyl-1H-indole-2-carbonyl)hydrazinocarbonyl)phenyl)carbamate], for which the pIC50 was less than 7.00.
